# Biological target: Polyphenol oxidase 1 [N65D,S176D,K211T,P277A,P406L] (Agaricus bisporus var. bisporus (strain H97 / ATCC MYA-4626 / FGSC 10389), UniProt Q00024, K211T/N65D/P277A/P406L/S176D)
# Assay: Enzymatic Activity Assay
# Conditions: pH 6.8
# Method: The mushroom tyrosinase inhibition activity of hydroxy naphthylchalcone compounds was measured using L-DOPA as substrate. The activity assay used 3 ml of reaction medium containing 0.5 mM L-DOPA in 50 mM Na2HPO4-NaH2PO4 buffer (pH 6.8). […] The substrate reaction progress curve was analyzed to obtain the reaction rate constants. The reaction was carried out at 30 °C and pH 6.8.
Structure (SMILES),IC50,Ki
"O=C(/C=C/c1cc(O)ccc1O)c1cc2ccccc2cc1O [(2E)-3-(2,5-dihydroxyphenyl)-1-(3-hydroxynaphthalen-2-yl) prop-2-en-1-one (1b)]",20.4 µM,10.8 µM
O=C(/C=C/c1ccc([N+](=O)[O-])cc1O)c1cc2ccccc2cc1O [(2E)-1-(3-hydroxynaphthalen-2-yl)-3-(2-hydroxy-4-nitrophenyl) prop-2-en-1-one (3b)],22.9 µM,11.2 µM
"O=C(/C=C/c1cc(O)cc(O)c1)c1cc2ccccc2cc1O [(2E)-3-(3,5-dihydroxyphenyl)-1-(3-hydroxynaphthalen-2-yl)prop-2-en-1-one (5b)]",10.4 µM,3.8 µM
O=C(/C=C/c1ccc(O)c([N+](=O)[O-])c1)c1cc2ccccc2cc1O [(2E)-1-(3-hydroxynaphthalen-2-yl)-3-(4-hydroxy-3-nitrophenyl) prop-2-en-1-one (4b)],25.6 µM,11.9 µM
"O=C(/C=C/c1ccc(O)cc1O)c1cc2ccccc2cc1O [(2E)-3-(2,4-dihydroxyphenyl)-1-(3-hydroxynaphthalen-2-yl) prop-2-en-1-one (2b)]",14.4 µM,4.5 µM

# From BindingDB's records for doi:10.1016/j.bioorg.2015.10.003 (University of Technology Sydney, 2015)
